We go through 3 compounds from patent US20100285963A1, “SUBSTITUTED FLUOROALKOXYPHENYLSULFONYLUREAS” (priority 2001, published 2010).

Counter-ions that a name gives are not always drawn.

Data set [1] relates to weeds. The data set can be described thus: Pre-emergence test (greenhouse), damage to weeds. Type of data set: in vivo. How it is done: (§1) Solvent: 5 parts by weight of acetone
(§2) Emulsifier: 1 part by weight of alkylaryl polyglycol ether
(§3) To produce a suitable preparation of active compound, 1 part by weight of active compound is mixed with the stated amount of solvent, the stated amount of emulsifier is added and the concentrate is diluted with water to the desired concentration.
(§4) Seeds of the test plants are sown in normal soil. After 24 hours, the soil is sprayed with the preparation of active compounds such that the particular amount of active compound desired is applied per unit area. The concentration of active compound in the spray liquor is chosen such that the particular amount of active compound desired is applied in 1000 liters of water per hectare.
(§5) After three weeks, the degree of damage to the plants is rated in % damage in comparison to the development of the untreated control. The figures denote: • 0%=no effect (like untreated control) • 100%=total destruction

In data set [2] the test system is weeds. Description: Post-emergence test (greenhouse), damage to weeds. Type of data set: in vivo. The protocol: as §1, §2
(§6) To product a suitable preparation of active compound, 1 part by weight of active compound is mixed with the stated amount of solvent, the stated amount of emulsifier is added and the concentrate is diluted with water to the desired concentration.
(§7) Test plants of a height of 5-15 cm are sprayed with the preparation of active compound such that the particular amounts of active compound desired are applied per unit area. The concentration of the spray liquor is chosen such that the particular amounts of active compound desired are applied in 10001 of water/ha.
(§8) After three weeks, the degree of damage to the plants is rated in % damage in comparison to the development of the untreated control.
(§9) The figures denote: • 0%=no effect (like untreated control) • 100%=total destruction

The subject of data set [3] is apple mildew pathogen Podosphaera leucotricha. Description: Podosphaera test (apple)/protective. Type of data set: in vivo. To be noted: protective, application rate of 100 g/ha, evaluation 10 days after the inoculation. How it is done:
Solvent: 49 parts by weight of acetone
as §2
To produce a suitable preparation of active compound, 1 part by weight of active compound is mixed with the stated amounts of solvent and emulsifier, and the concentrate is diluted with water to the desired concentration.
To test for protective activity, young plants are sprayed with the preparation of active compound at the stated application rate. After the spray coating has dried on, the plants are inoculated with an aqueous spore suspension of the apple mildew pathogen Podosphaera leucotricha. The plants are then placed in a greenhouse at about 23° C. and a relative atmospheric humidity of about 70%.
Evaluation is carried out 10 days after the inoculation. 0% means an efficacy which corresponds to that of the control, whereas an efficacy of 100% means that no infection is observed.

The test system of data set [4] is crop plants, such as, for example, corn, wheat and sugar beet. Description: Post-emergence test (greenhouse), tolerance by crop plants. Type of data set: in vivo. To be noted: 125 g of a.i./ha, after three weeks. The protocol: as §1, §2, §6, §7, §8, §9
Data set [5] has as its system crop plants, such as, for example, wheat and soya. Description: Pre-emergence test (greenhouse), tolerance by crop plants. The note with it: 125 g of a.i./ha, after three weeks. Type of data set: in vivo. The protocol:
as §1, §2, §3, §4, §5

Where [6] appears, read: 125 g of a.i./ha, after three weeks.
Setting [7] is: 250 g of a.i./ha, after three weeks.

Regarding `COc1nc(C)nc(NC(=O)NS(=O)(=O)c2c(C)cccc2OCCF)n1` [Example 1, N-[2-(2-fluoroethoxy)-6-methylphenylsulfonyl]-N′-(4-methoxy-6-methyl-1,3,5-triazin-2-yl)urea], the melting point (usually the temperature of the solid-liquid transition) was found to be 161 °C. Moreover, the activity against weeds result in the data set on weeds [1] (soil sprayed 24 hours after sowing, rated after three weeks as % damage vs untreated control) is reported as “very strong activity”. Besides, in the data set with weeds [2] (test plants of 5-15 cm sprayed, rated after three weeks as % damage vs untreated control), the activity against weeds result is recorded as “very strong activity”. The “efficacy against mildew of apples (Podosphaera leucotricha)” value in data set [3] is 100%.

Consider `CCCc1cccc(OCCCF)c1S(=O)(=O)NC(=O)Nc1nc(OC)cc(OC)n1` [(25)], for which the “% damage Wheat” value in data set [4] is listed as 10%. For the same compound, in the data set with weeds [1] (setting [6]), the “% damage Chenopodium” value worked out at 90%, the “% damage Datura” value came to 90%, the “% damage Echinochloa” value was determined as 90% and the “% damage Stellaria” value is recorded as 90%. For the same compound, in the data set on weeds [1] (setting [6]), the “% damage Viola” value was 100%. Besides, in the data set on weeds [1] (setting [7]), the “% damage Alopecurus” value is 95%, the “% damage Amaranthus” value is on record as 100%, the “% damage Avena fatua” value is 90% and the “% damage Galium” value came to 95%. In the data set on weeds [1] (setting [7]), the “% damage Setaria” value was found to be 100% and the “% damage Xanthium” value was 100%. Also, in the data set with weeds [2] (setting [6]), the “% damage Abutilon” value was found to be 95%, the “% damage Alopecurus” value turned out to be 90%, the “% damage Amaranthus” value came out at 100% and the “% damage Datura” value came to 100%. Also, in the data set on weeds [2] (setting [6]), the “% damage Solanum” value is given as 100%. Moreover, in the data set on weeds [2] (setting [7]), the “% damage Abutilon” value is recorded as 100%, the “% damage Alopecurus” value is given as 90%, the “% damage Amaranthus” value came to 100% and the “% damage Avena fatua” value amounted to 90%. In the data set on weeds [2] (setting [7]), the “% damage Galium” value amounted to 100%, the “% damage Setaria” value was determined as 100% and the “% damage Sinapis” value was determined as 100%. In data set [5], the “% damage Wheat” value stood at 0%.

Compound `COc1nc(C)nc(NC(=O)NS(=O)(=O)c2c(C)cccc2OCCF)n1` (as salt: sodium) [Example 2, N-[2-(2-fluoroethoxy)-6-methylphenyl-sulfonyl]-M-(4-methoxy-6-methyl-1,3,5-triazin-2-yl)urea sodium salt] came in with a melting point of 185 °C.
